Consider two compounds from US9169247B2, “Tetrahydro-beta-carboline derivatives, synthesis and use thereof” (Southern Research Institute, priority 2009, dated 2015).

Data set [1] deals with cGMP phosphodiesterase. In words: cGMP phosphodiesterase activity in whole cell lysates (fluorescence polarization). The format is biochemical, human. Particulars: lysates from MDA-MB-231 cells treated for 18 hours; FIG. 2. The method, then: FIG. 2 illustrates cGMP phosphodiesterase inhibitory activity of compound 2f. Whole cell lysates from human MDA-MB-231 breast tumor cells treated for 18 hours with compound 2f were assayed for cGMP phosphodiesterase activity using a fluorescence polarization assay (Molecular Devices Inc).
For orientation: In fluorescence polarisation assays a small probe gives low polarisation when free and higher when bound to something large.

The subject of data set [2] is UACC-62. The data set is described as follows: Growth assay (Cell Titer Glo). Particulars: Homo sapiens; UACC-62, melanoma. The format is cell-based. Put shortly:
(§1)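 Luminescent ATP-based viability readout, taken 72 h post-treatment; IC50 by four-parameter logistic fit. Cells seeded 5,000/well in RPMI 1640 + 5% FBS, pre-incubated 18-24 h, then dosed with compound (final DMSO 0.1%).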
For orientation: ATP-based viability assays read luminescence as a measure of living cells.

The test system of data set [3] is HOP-62. The data set is described as follows: Growth assay (Cell Titer Glo). The format is cell-based. Particulars: Homo sapiens; HOP-62, lung. An outline of the steps:
as §1

In data set [4] the test system is SKOV-3. In words: Growth assay (Cell Titer Glo). The format is cell-based. Particulars: Homo sapiens; SKOV-3 / SK-OV-3, ovarian. An outline of the steps:
as §1

Data set [5] relates to PC-3. The data set is described as follows: Growth assay (Cell Titer Glo). The format is cell-based. The conditions noted are these: Homo sapiens; PC-3, prostate. Put shortly: as §1
In data set [6] the test system is ZR75-1. The data set is described as follows: Growth assay (Cell Titer Glo). The data set is classed as cell-based. The conditions noted are these: Homo sapiens, ZR-75-1; ZR75-1 breast; 72 h. On the procedure:
(§2) Compounds 2a-h were tested for tumor cell growth inhibitory activity using the human breast MDA-MB-231 and ZR75-1 tumor cell lines and the colon CACO-2, SW-1116, and HT-29 tumor cell lines.
(§3) All human tumor cell lines were obtained from ATCC and grown under standard cell culture conditions at 37° C. in a humidified atmosphere with 5% CO2. Cells were grown in RPMI 1640 supplemented with 5% fetal bovine serum 2 mM glutamine, 100 units/ml penicillin, 100 units/ml streptomycin, and 0.25 μg/ml amphotericin. Cells were harvested at 70 to 90% confluence with trypsin/EDTA and used immediately Cell count and viability was determined by Trypan blue staining followed by hemocytometry. Only cultures displaying >95% cell viability were used for experiments. HMEC were grown according to the specifications from the supplier (Lonzo).
(§4) Tissue culture microtiter 96-well plates were seeded with cells at a density of 5,000 cells/well. The plates were incubated for 18-24 hours prior to any treatment. All test compounds were solubilized in 100% DMSO and diluted with media to obtain a final DMSO concentration of 0.1%. Cell viability was measured 72 hours after treatment by the Cell Titer Glo Assay (Promega), which is a luminescent assay that is an indicator of live cells as a function of metabolic activity and ATP content. The assay was performed according to manufacturer's specifications. Luminescence was measured by a Perkin Elmer Victor® multi-label plate reader.^6
(§5) Dose response curves were analyzed using Prism™ 4 software (GraphPad) to calculate IC50 values using a four parameter logistic equation.

For data set [7], the system named is SW1116. The data set is described as follows: Growth assay (Cell Titer Glo). The data set is classed as cell-based. Particulars: Homo sapiens, SW 1116; SW1116 colon; 72 h. The method, then: as §2, §3, §4, §5
The test system of data set [8] is CACO-2. In words: Growth assay (Cell Titer Glo). The conditions noted are these: Homo sapiens; CACO-2 colon; 72 h. The format is cell-based. The method, then:
as §2, §3, §4, §5

Data set [9] has as its system normal human mammary epithelial cells (HMEC). In words: Cytotoxicity to normal cells (growth assay). The data set is classed as cell-based. The conditions noted are these: up to a concentration of 10 μM. On the procedure:
as §3, §4

Data set [10] deals with HT-29. The data set is described as follows: Growth assay (Cell Titer Glo). The format is cell-based, human. Particulars: HT-29 colon. On the procedure:
as §2, §3, §4, §5

In data set [11] the test system is human Caki-1 renal tumor cell line. The data set is described as follows: Growth assay (Cell Titer Glo). The format is cell-based. The method, then: (§6) FIGS. 3A-B illustrate the anticancer activity of compound 2j. […] The cells with treated for 72 hours prior to measuring cell viability using the Cell Titer Glo assay (Promega Corp.). […] Tumor bearing mice were treated at a dose of 10 mg/kg one time per day for 22 days.
All human tumor cell lines were obtained from ATCC and grown under standard cell culture conditions at 37° C. in a humidified atmosphere with 5% CO2. Cells were grown in RPMI 1640 supplemented with 5% fetal bovine serum 2 mM glutamine, 100 units/ml penicillin, 100 units/ml streptomycin, and 0.25 μg/ml amphotericin. Cells were harvested at 70 to 90% confluence with trypsin/EDTA and used immediately Cell count and viability was determined by Trypan blue staining followed by hemocytometry. Only cultures displaying >95% cell viability were used for experiments. […]
Tissue culture microtiter 96-well plates were seeded with cells at a density of 5,000 cells/well. […] Cell viability was measured 72 hours after treatment by the Cell Titer Glo Assay (Promega), which is a luminescent assay that is an indicator of live cells as a function of metabolic activity and ATP content. […] Luminescence was measured by a Perkin Elmer Victor® multi-label plate reader.^6
as §5

The test system of data set [12] is MDA-MB-435. The data set is described as follows: Growth assay (Cell Titer Glo). The data set is classed as cell-based. Particulars: Homo sapiens; MDA-MB-435, melanoma. An outline of the steps: as §1
The subject of data set [13] is MDA-MB-468. In words: Growth assay (Cell Titer Glo). The data set is classed as cell-based. The conditions noted are these: Homo sapiens; MDA-MB-468, breast. An outline of the steps: as §1
For data set [14], the system named is NCI-H226. The data set is described as follows: Growth assay (Cell Titer Glo). The data set is classed as cell-based. Particulars: Homo sapiens; NCI-H226, lung. Put shortly: as §1
The subject of data set [15] is SK-MEL-2. In words: Growth assay (Cell Titer Glo). The data set is classed as cell-based. Particulars: Homo sapiens; SK-MEL-2, melanoma. An outline of the steps:
as §1

The subject of data set [16] is SF-295. The data set is described as follows: Growth assay (Cell Titer Glo). The data set is classed as cell-based. Particulars: Homo sapiens; SF-295, CNS. Put shortly: as §1
The subject of data set [17] is K562. In words: Growth assay (Cell Titer Glo). The data set is classed as cell-based. The conditions noted are these: Homo sapiens; K562, hematopoietic. Put shortly:
as §1

Data set [18] has as its system NCI-H522. In words: Growth assay (Cell Titer Glo). The data set is classed as cell-based. Particulars: Homo sapiens; NCI-H522, lung. An outline of the steps:
as §1

The test system of data set [19] is SK-MEL-5. The data set is described as follows: Growth assay (Cell Titer Glo). The format is cell-based. Particulars: Homo sapiens; SK-MEL-5, melanoma. Put shortly:
as §1

The test system of data set [20] is BT-549. In words: Growth assay (Cell Titer Glo). The data set is classed as cell-based. Particulars: Homo sapiens; BT-549, breast. Put shortly:
as §1

Data set [21] deals with OVCAR-3. In words: Growth assay (Cell Titer Glo). The data set is classed as cell-based. Particulars: Homo sapiens; OVCAR-3, ovarian. Put shortly:
as §1

The subject of data set [22] is Hs578T. The data set is described as follows: Growth assay (Cell Titer Glo). The format is cell-based. The conditions noted are these: Homo sapiens, Hs-578T, breast. Put shortly:
as §1

In data set [23] the test system is COLO205. The data set is described as follows: Growth assay (Cell Titer Glo). The format is cell-based. The conditions noted are these: Homo sapiens, COLO 205; COLO205, colon. An outline of the steps:
as §1

Data set [24] deals with HOP-92. In words: Growth assay (Cell Titer Glo). The format is cell-based. Particulars: Homo sapiens; HOP-92, lung. Put shortly:
as §1

The test system of data set [25] is A549. In words: Growth assay (Cell Titer Glo). The data set is classed as cell-based. The conditions noted are these: Homo sapiens; A549, lung. Put shortly: as §1
Data set [26] has as its system A498. The data set is described as follows: Growth assay (Cell Titer Glo). The conditions noted are these: Homo sapiens; A498, renal. The format is cell-based. An outline of the steps: as §1
Data set [27] relates to HCC-2998. In words: Growth assay (Cell Titer Glo). The format is cell-based. Particulars: Homo sapiens; HCC-2998, colon. An outline of the steps: as §1
Data set [28] has as its system human Caki-1 renal tumor mouse xenograft. The data set is described as follows: Caki-1 renal tumor mouse xenograft model. The data set is classed as in vivo. The conditions noted are these: 10 mg/kg one time per day for 22 days; FIG. 3B. The method, then:
as §6

Each structure is given as a SMILES string. pIC50: −log10 of the molar value. “Also recorded” adds a separate entry of the source. Read-outs that look alike come from different tables or passages of the source.

Broadly, the pIC50 is the IC50 on a negative log10 scale, so that one unit is a factor of ten. A word on the melting point: it is the temperature of the solid-liquid transition. As a reminder, the IC50 is the point on the concentration scale where inhibition reaches its midpoint. For `COC(=O)[C@H]1Cc2c([nH]c3ccccc23)[C@H](c2cc(OC)ccc2OC)N1C(=O)CCl` [Compound 2f, Methyl (1S,3R)-1-(2,5-dimethoxyphenyl)-2-(2-chloroacetyl)-2,3,4,9-tetrahydro-1H-β-carboline-3-carboxylate], the melting point stood at 232 °C. In addition, the “cGMP PDE activity in lysates” value in data set [1] is “selectively inhibited”. The compound also showed a pIC50 in [2] of 6.92. For the same compound, in data set [3], the negative logarithm of the IC50 (pIC50) is 7.70. The pIC50 in [4] was 7.22. Moreover, in [5], the pIC50 is 6.72. For the same compound, in [6], the IC50 worked out at 1.2 µM. Inhibition in [7] was half-maximal at 4.4 µM (IC50). Also, in data set [8], it took 0.01 µM to reach half-maximal inhibition (IC50). Further, in data set [9], the “cytotoxicity to normal human mammary epithelial cells (HMEC)” value is “insensitive; also recorded: no cytotoxicity”. This compound registered an IC50 in data set [10] (72 h) of 0.452 µM. The 50% inhibitory concentration (IC50) in data set [10] (Homo sapiens, HT-29, 72 h) stood at 0.45 µM. The pIC50 in data set [11] (CAKI-1, CAKI-1, renal, read-out: IC50) was > 8.22.

`COC(=O)[C@H]1Cc2c([nH]c3ccccc23)[C@H](c2ccc(Cl)cc2Cl)N1C(=O)CCl` [Compound 2j, (1S,3R) Methyl 1-(2,4-dichlorophenyl)-2-(2-chloroacetyl)-2,3,4,9-tetrahydro-1H-β-carboline-3-carboxylate]: the melting point lay within 106 to 109 °C. Further, the pIC50 in data set [12] was 6.19. The same compound gave a pIC50 in data set [13] of 6.89. In data set [14], this compound had a pIC50 of 5.85. The same compound showed a negative-log IC50 (pIC50) in [15] of 6.04. In data set [16], this compound gave a pIC50 of 7.15. This compound had a pIC50 in [17] of 5.90. The compound further had a negative-log IC50 (pIC50) in data set [18] of 7.80. For the same compound, in [19], the negative logarithm of the IC50 (pIC50) was < 5.52. Besides, the negative logarithm of the IC50 (pIC50) in data set [20] is 6.12. Further, the negative logarithm of the IC50 (pIC50) in data set [21] is 6.89. The same compound gave a pIC50 in [2] of 6.54. Moreover, the negative-log IC50 (pIC50) in data set [22] was 6.66. Also, the pIC50 in [3] was 6.70. The compound further showed a pIC50 in [23] of 5.84. Also, the negative-log IC50 (pIC50) in data set [24] was 7.70. The negative logarithm of the IC50 (pIC50) in data set [25] was < 5.52. This compound had a pIC50 in [26] of 7.02. Also, in data set [4], the pIC50 is 6.49. In addition, in data set [5], the pIC50 is 6.47. Further, the pIC50 in [27] is 5.65. In data set [28], the “in vivo tumor growth” value is listed as “strongly suppressed tumor growth; also recorded: strong in vivo antitumor activity”. Further, the IC50 in [10] (Homo sapiens, HT-29, 72 h) was 0.65 µM. In addition, the pIC50 in data set [11] (CAKI-1, 72 h, FIG. 3A legend, read-out: IC50 value, tumor cell growth) was 8.64.
